{
  "source": "paper PMC9741287",
  "about": "“Cytotoxic and Luminescent Properties of Novel Organotin Complexes with Chelating Antioxidant Ligand” (Molecules, 2022)",
  "key": {"[1]": {"target": "T1, Soybean lipoxygenase LOX-1B (Glycine max, UniProt P08170)", "T1 sequence (P08170 1-839)": "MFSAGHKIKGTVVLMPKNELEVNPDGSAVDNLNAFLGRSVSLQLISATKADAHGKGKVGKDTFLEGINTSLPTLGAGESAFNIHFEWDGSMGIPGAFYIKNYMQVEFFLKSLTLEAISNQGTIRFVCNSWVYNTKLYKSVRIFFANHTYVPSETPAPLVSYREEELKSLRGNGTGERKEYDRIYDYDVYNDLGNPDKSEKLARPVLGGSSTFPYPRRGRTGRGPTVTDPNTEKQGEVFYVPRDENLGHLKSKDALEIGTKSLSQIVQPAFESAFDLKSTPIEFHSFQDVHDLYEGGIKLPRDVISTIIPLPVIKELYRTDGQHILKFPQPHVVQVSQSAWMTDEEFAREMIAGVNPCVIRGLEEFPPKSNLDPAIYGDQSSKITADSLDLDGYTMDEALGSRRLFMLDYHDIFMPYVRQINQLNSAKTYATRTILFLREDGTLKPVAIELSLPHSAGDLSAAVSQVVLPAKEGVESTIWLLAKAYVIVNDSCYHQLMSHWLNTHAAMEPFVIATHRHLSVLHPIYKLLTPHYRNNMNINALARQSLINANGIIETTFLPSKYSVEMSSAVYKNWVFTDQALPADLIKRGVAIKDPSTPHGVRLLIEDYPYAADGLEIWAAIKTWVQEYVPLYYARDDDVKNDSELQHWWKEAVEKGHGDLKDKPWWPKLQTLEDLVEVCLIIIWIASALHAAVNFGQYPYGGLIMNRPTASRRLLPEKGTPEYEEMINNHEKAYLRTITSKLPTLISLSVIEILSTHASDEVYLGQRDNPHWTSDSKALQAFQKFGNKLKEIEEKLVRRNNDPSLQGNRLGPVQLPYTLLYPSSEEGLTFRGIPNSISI", "experiment": "Lipoxygenase inhibition assay", "format": "biochemical", "details": "3 µL of 1 mM compound in DMSO per 150 µL, 5 min, 20 °C, 234 nm", "excerpt": "Lipoxygenases are a group of enzymes catalyzing regioselective oxidation of polyunsaturated fatty acids to corresponding hydroperoxides. […] Soybean lipoxygenase LOX-1B was used as a model enzyme since it is structurally relative to human 5-lipoxygenases. The influence of synthesized compounds 1–7 on the LOX-1B activity was estimated as a formation rate of octadecadienoic acid hydroperoxides (λmax = 234 nm) from the initial acid and was monitored spectrophotometrically (Table 1).\nThe lipoxygenase activity was evaluated spectrophotometrically. The concentrations of linoleic acid oxidation products, isomeric hydroperoxides, were measured at λmax = 234 nm (ε = 25,000 L mol^−1 cm^−1) with a 96-well microplate spectrophotometer Multiskan Go (Thermo Fisher Scientific, Waltham, MA, USA). The analyzed solution contained 30 µL borate buffer (pH 9.0), 100 µL linoleic acid (0.45 mM) in borate buffer, and 3 µL 1 mM solution of the test compound in DMSO. The reaction was initiated by the addition of 17 µL of lipoxygenase (500 U) solution in borate buffer. The measurements were performed for 5 min at 20 °C.\nThe inhibition rate I (%) of lipoxygenase was determined by the Equations (2) and (3), where A0 is the absorbance of the control solution, and A1 is the absorbance of the reaction mixture in the presence of the tested compound 5 min after the beginning of the reaction. ΔA is the difference between A1 and A0. All experiments were performed in triplicate."}, "[2]": {"experiment": "Hydrolysis stability at different pH (UV-vis)", "format": "physicochemical", "details": "phosphate buffer, pH = 5 and pH = 7; absorbance 250–500 nm", "protocol": "Investigations of potential drug pharmacokinetics are an important part of the evaluation of its potential efficacy and applicability. On the base level, this can be studied in vitro as a hydrolysis stability assay at different pH levels. […] The stability of compounds was estimated as an optical density drop at λ = 250–500 nm at pH = 5 and pH = 7 (Figure 3 and Figure 4).\nThe stability of synthesized compounds was estimated spectrophotometrically. To 1.5 mL of either phosphate buffer with pH = 5.0 or phosphate buffer with pH = 7.4, 300 µL of 2 mM test solution in MeOH was added. Then adsorption spectra at λ = 250–500 nm were recorded for 20 h. Graphs were built using OriginPro 2019b."}, "[3]": {"system": "formation of advanced glycation end products (AGEs)", "experiment": "Antiglycation activity (BSA-glucose, AGE fluorescence)", "format": "biochemical", "details": "for Antiglycation activity, M ± SEM: 24 h at 60 °C", "protocol": "The glycation reaction was carried out in a phosphate buffer solution of 0.05 M, pH 7.4. Composition of the reaction medium: 0.36 M glucose solution and 1 mg/mL BSA (fraction V). The test compounds were dissolved in 99% DMSO (final concentration in the reaction medium ~3%). The activity of compound 1 was studied in the concentration range of 1000–0.1 μM, and the activity of aminoguanidine was determined at concentrations of 10,000–1000 μM. Control samples contained an equivalent volume of solvent. The samples were incubated for 24 h at 60 °C.\nData registration was carried out by the spectrofluorimetric method, determining AGE by specific fluorescence at excitation/emission wavelengths of 370/440 nm (spectrofluorimeter M 200 PRO, TECAN Austria GmbH, Grödig, Austria).\nIn order to exclude false positive results for compounds suppressing AGE fluorescence due to interference, the obtained data were logarithmically normalized according to Equation (4):Fly(log) = 10^(log10(Exp)−log10(Blank)) − 1(4) where Fly(log) is the normalized AGE fluorescence intensity, log10(Exp) and log10(blank) are the decimal logarithms of the actual fluorescence levels of glycated and corresponding non-glycated samples (both containing the test compound and controls).\nThe activity of other compounds (both non-fluorescent and fluorescent at the wavelengths used) was expressed by the Equation (5):Fly(lin) = Exp − Blank(5) where Fly(lin) is the fluorescence intensity of AGEs, Exp and blank are the actual fluorescence levels of glycated and corresponding non-glycated samples (both those containing the test compound and controls).\nDetermination of activity expressed as % suppression of fluorescence of AGE, was made according to the Equation (6):% = 100 − (Fly(Exp) × 100/Fly(Contr))(6) where Fly(Exp) and Fly(Contr) are the CPG fluorescence intensity of experimental and control samples, respectively (log-normalized or non-log-normalized)."}},
  "data": [
    {"molecule": "CC(C)(C)c1cc(C2=NN=Cc3ccccc3[O][Sn]([c]3cc(C(C)(C)C)c(O)c(C(C)(C)C)c3)([c]3cc(C(C)(C)C)c(O)c(C(C)(C)C)c3)[O]2)cc(C(C)(C)C)c1O", "note": "[Compound 7, (2,6-Di-tert-butylphenol)2SnL]", "values": [
      {"measurement": "I (LOX Inhibition Assay)", "setting": "[1]", "value": "66.0 ± 5.9", "unit": "%"}
    ]},
    {"molecule": "C[CH2][Sn]1([CH2]C)[O]C(c2cc(C(C)(C)C)c(O)c(C(C)(C)C)c2)=NN=Cc2ccccc2[O]1", "note": "[Compound 3, Et2SnL]", "values": [
      {"measurement": "I (LOX Inhibition Assay)", "setting": "[1]", "value": "61.1 ± 5.1", "unit": "%"}
    ]},
    {"molecule": "CC(C)(C)c1cc(C2=NN=Cc3ccccc3[O][Sn]([c]3ccccc3)([c]3ccccc3)[O]2)cc(C(C)(C)C)c1O", "note": "[Compound 6, Ph2SnL]", "values": [
      {"measurement": "I (LOX Inhibition Assay)", "setting": "[1]", "value": "44.9 ± 3.7", "unit": "%"}
    ]},
    {"molecule": "CC(C)(C)c1cc(C2=NN=Cc3ccccc3[O][Sn]([C](C)(C)C)([C](C)(C)C)[O]2)cc(C(C)(C)C)c1O", "note": "[Compound 5, Bu^t2SnL]", "values": [
      {"measurement": "I (LOX Inhibition Assay)", "setting": "[1]", "value": "61.4 ± 5.3", "unit": "%"}
    ]},
    {"molecule": "CC(C)(C)c1cc(C(=O)N/N=C/c2ccccc2O)cc(C(C)(C)C)c1O", "note": "[Compound 1, Di-tert-butyl-4-hydroxy-N′-(2-hydroxybenzylidene)-benzohydrazine]", "values": [
      {"measurement": "inhibition at 1000 µM (stock)", "setting": "[1]; read-out: I (LOX Inhibition Assay)", "value": "51.7 ± 4.2", "unit": "%"},
      {"measurement": "Time after which decomposition (hydrolysis) is seen", "setting": "[2]", "value": "approximately 1 h"},
      {"measurement": "IC50", "setting": "[3]", "value": 2.8, "unit": "µM"},
      {"measurement": "Antiglycation activity, M ± SEM", "setting": "[3]; concentration 0.3 µM", "value": "−1.9 ± 1.4", "unit": "%"},
      {"measurement": "Antiglycation activity, M ± SEM", "setting": "[3]; concentration 1 µM", "value": "0.6 ± 2.3", "unit": "%"},
      {"measurement": "Antiglycation activity, M ± SEM", "setting": "[3]; concentration 3 µM", "value": "53.9 ± 2.5", "unit": "%"},
      {"measurement": "Antiglycation activity, M ± SEM", "setting": "[3]; concentration 10 µM", "value": "60.1 ± 1.1", "unit": "%"},
      {"measurement": "Antiglycation activity, M ± SEM", "setting": "[3]; concentration 30 µM", "value": "62.0 ± 0.7", "unit": "%"},
      {"measurement": "Antiglycation activity, M ± SEM", "setting": "[3]; concentration 100 µM", "value": "61.6 ± 0.5", "unit": "%"},
      {"measurement": "Antiglycation activity, M ± SEM", "setting": "[3]; concentration 300 µM", "value": "73.2 ± 1.9", "unit": "%"},
      {"measurement": "Antiglycation activity, M ± SEM", "setting": "[3]; concentration 1000 µM", "value": "70.2 ± 8.0", "unit": "%"},
      {"measurement": "melting point", "value": "265 to 269", "unit": "°C"}
    ]},
    {"molecule": "CCC[CH2][Sn]1([CH2]CCC)[O]C(c2cc(C(C)(C)C)c(O)c(C(C)(C)C)c2)=NN=Cc2ccccc2[O]1", "note": "[Compound 4, Bu2SnL]", "values": [
      {"measurement": "I (LOX Inhibition Assay)", "setting": "[1]", "value": "47.5 ± 3.8", "unit": "%"}
    ]},
    {"molecule": "CC(C)(C)c1cc(C2=NN=Cc3ccccc3[O][Sn]([CH3])([CH3])[O]2)cc(C(C)(C)C)c1O", "note": "[Compound 2, Me2SnL]", "values": [
      {"measurement": "I (LOX Inhibition Assay)", "setting": "[1]", "value": "57.1 ± 4.7", "unit": "%"}
    ]}
  ]
}
